The record followed here is publication PMC8467567, “Selective Targeting of Human and Animal Pathogens of the Helicobacter Genus by Flavodoxin Inhibitors: Efficacy, Synergy, Resistance and Mechanistic Studies” (International Journal of Molecular Sciences, 2021).

The target of experiment [1] is T1, Hp-Fld (H. pylori flavodoxin) (Helicobacter pylori, UniProt O25776).
T1 construct: gene fldA; recombinant from pET28a-fldA in E. coli BL21 (DE3); DEAE purification, no tag mentioned; FMN added during lysis, transformed into holoprotein if needed
T1 sequence (O25776 1-164): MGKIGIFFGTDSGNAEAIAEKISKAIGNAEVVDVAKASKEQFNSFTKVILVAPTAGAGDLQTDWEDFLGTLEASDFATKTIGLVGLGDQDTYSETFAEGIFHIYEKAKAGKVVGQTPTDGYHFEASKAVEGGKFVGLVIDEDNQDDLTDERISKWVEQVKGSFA
The experiment in a line: biochemical. On the set-up: isothermal titration calorimetry of compounds binding to recombinant wild-type Hp-Fld, pH 9. The protocol:
Isothermal titration calorimetry (ITC) experiments were carried out in an Auto-iTC200 calorimeter (MicroCal, Malvern-Panalytical, Malvern, UK) in order to characterise the affinity of the wild-type Hp-Fld protein and the different mutants N14A, A55W, V113W, Q115W, T116W, K133A and D142Y for the different compounds. Recombinant Hp-Fld at 10–20 µM concentration in 50 mM EPPS buffer, pH 9 (for IV, IV-a, IV-b, IV-c, rac-IV-j, rac-IV-k and rac-IV-l), or in 50 mM Tris-HCl buffer, pH 9 (for IV-d) was titrated with 120–300 µM ligand solutions in the same buffer, prepared from stock compound solutions in 100% DMSO. At the residual DMSO concentration of 2.5% employed in the working solutions, wild-type flavodoxin has been described to be conformationally stable and biochemically active. Thermodynamic parameters of the binding equilibrium were calculated by non-linear least-squares regression analysis considering a single ligand binding site and using the user-defined fitting routines in the MicroCal LLC ITC module from the Origin 7.0 software (Northampton, MA, USA). Interaction between wild-type Hp-Fld and compounds IV, IV-a, IV-b, IV-c, IV-d, rac-IV-j, rac-IV-k and rac-IV-l was evaluated by ITC (Figure S3 and Table S1).

For experiment [2], the target named is T2, Hp-Fld (H. pylori flavodoxin) (Helicobacter pylori, UniProt O25776, A55W).
T2 construct: gene fldA
As to the kind of experiment: biochemical. The source says: (§1) isothermal titration calorimetry on Hp-Fld (H. pylori flavodoxin)

For experiment [3], the target named is T3, Hp-Fld (H. pylori flavodoxin) (Helicobacter pylori, UniProt O25776, D142Y).
T3 construct: gene fldA
As to the kind of experiment: biochemical.
Description: as §1

Experiment [4] concerns the target T4, Hp-Fld (H. pylori flavodoxin) (Helicobacter pylori, UniProt O25776, N14A).
T4 construct: gene fldA
As to the kind of experiment: biochemical.
Description: as §1

The target of experiment [5] is T5, Hp-Fld (H. pylori flavodoxin) (Helicobacter pylori, UniProt O25776, T116W).
T5 construct: gene fldA
The experiment in a line: biochemical.
Description: as §1

In experiment [6] the target is T6, Hp-Fld (H. pylori flavodoxin) (Helicobacter pylori, UniProt O25776, V113W).
T6 construct: gene fldA
The experiment in a line: biochemical.
Description: as §1

Experiment [7] addresses T1, Hp-Fld (H. pylori flavodoxin). As to the kind of experiment: isothermal titration calorimetry. Type of experiment: binding. On the technique in general: ITC needs no label: the signal is the heat of the interaction.

With `O=[N+]([O-])c1ccc(SCc2ccc(OCC(O)CO)cc2)c2nonc12` (racemic) [rac-IV-j, rac-3-(4-(((7-Nitrobenzo[c][1,2,5]oxadiazol-4-yl)thio)methyl)phenoxy)propane-1,2-diol], the Kd in experiment [1] came to 2330 nM.
As for `Nc1ccc(SCc2ccc(OCC(O)CO)cc2)c2nonc12` (racemic) [rac-IV-k, rac-3-(4-(((7-Aminobenzo[c][1,2,5]oxadiazol-4-yl)thio)methyl)phenoxy)propane-1,2-diol], in experiment [1], the Kd was 3360 nM.
With `Nc1ccc([S+]([O-])Cc2ccc(OCC(O)CO)cc2)c2nonc12` (racemic) [rac-IV-l, rac-3-(4-(((7-Aminobenzo[c][1,2,5]oxadiazol-4-yl)sulfinyl)methyl)phenoxy)propane-1,2-diol], the Kd in experiment [1] was found to be 1650 nM.
For `COc1ccc(CSc2ccc(N)c3nonc23)cc1` [IV-a], the Kd in experiment [1] worked out at 5260 nM.
On to `COc1ccc(C2(C)SCc3cc(C)c(C)cc3CS2)cc1` [IV-b], for which the Kd in experiment [1] was 910 nM.
For `COc1ccc(CSc2cc(Cl)c(N)c3nonc23)cc1` [IV-c], the Kd in experiment [2] was determined as 1050 nM; in experiment [3] it was 440 nM; in experiment [4] it was 1760 nM; in experiment [5] it was 1430 nM; in experiment [6] it was 1450 nM; in experiment [7] (read-out: IV-c / Kd^b), 670 nM.
Turning to `COc1ccc(C[S+]([O-])c2ccc(N)c3nonc23)cc1` (stereo not drawn) [IV-d], in experiment [1], the Kd is 1550 nM.
Turning to `COc1ccc(CSc2ccc([N+](=O)[O-])c3nonc23)cc1` [IV], the Kd in experiment [2] was found to be 2330 nM; in experiment [3], 1180 nM; in experiment [4], 450 nM; in experiment [5], 1100 nM; in experiment [6], 500 nM; in experiment [7] (read-out: IV / Kd^b), 480 nM.
